Source: ChEMBL document CHEMBL1201862, “PubChem BioAssay data set” (2004)
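Assay format: 96-well plates, 48-hour exposure. At the GI50, growth is halved.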 Active and inactive are the calls of the source. Cut-off read from the data, not from the text of the source: active = GI50 up to about 1.1 µM and inactive = higher.

Assays:
Assay in all cases: NCI tumour cell line growth inhibition, 48 h
[1] = test system: 786-0
[2] = test system: A498
[3] = test system: A549
[4] = test system: ACHN
[5] = test system: BT-549
[6] = test system: CAKI-1
[7] = test system: CCRF-CEM
[8] = test system: COLO 205
[9] = test system: DU-145
[10] = test system: EKVX
[11] = test system: HCC 2998
[12] = test system: HCT-116
[13] = test system: HCT-15
[14] = test system: HOP-62
[15] = test system: HOP-92
[16] = test system: HT-29
[17] = test system: Hs-578T
[18] = test system: IGROV-1
[19] = test system: K562
[20] = test system: KM12
[21] = test system: LOX IMVI
[22] = test system: M14
[23] = test system: MCF7
[24] = test system: MDA-MB-231
[25] = test system: MDA-MB-435
[26] = test system: MDA-N
[27] = test system: MOLT-4
[28] = test system: Malme-3M
[29] = test system: NCI-H226
[30] = test system: NCI-H23
[31] = test system: NCI-H460
[32] = test system: NCI-H522
[33] = test system: NCI/ADR-RES
[34] = test system: OVCAR-3
[35] = test system: OVCAR-4
[36] = test system: OVCAR-5
[37] = test system: OVCAR-8
[38] = test system: PC-3
[39] = test system: RPMI-8226
[40] = test system: RXF 393
[41] = test system: SF-268
[42] = test system: SF-295
[43] = test system: SK-MEL-28
[44] = test system: SK-MEL-2
[45] = test system: SK-MEL-5
[46] = test system: SK-OV-3
[47] = test system: SN12C
[48] = test system: SNB-19
[49] = test system: SW-620
[50] = test system: T47D
[51] = test system: TK-10
[52] = test system: U-251
[53] = test system: UACC-257
[54] = test system: UACC-62
[55] = test system: UO-31

## CN1C/C(=C\c2cccs2)C(=O)/C(=C/c2cccs2)C1
[1]
  GI50: 17.7 µM (inactive)
[2]
  GI50: 19.7 µM (inactive)
[3]
  GI50: 21.9 µM (inactive)
[4]
  GI50: 25.9 µM (inactive)
[5]
  GI50: 21.4 µM (inactive)
[6]
  GI50: 31.1 µM (inactive)
[7]
  GI50: 5.27 µM (inactive)
[8]
  GI50: 24.4 µM (inactive)
[9]
  GI50: 28.6 µM (inactive)
[10]
  GI50: 19.1 µM (inactive)
[11]
  GI50: 19.5 µM (inactive)
[12]
  GI50: 14.2 µM (inactive)
[13]
  GI50: 27.2 µM
[14]
  GI50: 33 µM (inactive)
[15]
  GI50: 2.51 µM (inactive)
[16]
  GI50: 18.7 µM (inactive)
[17]
  GI50: > 100 µM (inactive)
[18]
  GI50: 18.9 µM (inactive)
[19]
  GI50: 25.1 µM (inactive)
[20]
  GI50: 21 µM (inactive)
[21]
  GI50: 16.3 µM (inactive)
[22]
  GI50: 21.1 µM (inactive)
[23]
  GI50: 15.7 µM (inactive)
[24]
  GI50: 18.3 µM (inactive)
[25]
  GI50: 16 µM (inactive)
[26]
  GI50: 15.6 µM (inactive)
[27]
  GI50: 6.59 µM (inactive)
[28]
  GI50: 40.1 µM (inactive)
[29]
  GI50: > 100 µM (inactive)
[30]
  GI50: 31.2 µM (inactive)
[31]
  GI50: 24.3 µM (inactive)
[32]
  GI50: 75.2 µM (inactive)
[33]
  GI50: 22.1 µM (inactive)
[34]
  GI50: 29.3 µM (inactive)
[35]
  GI50: 18.7 µM (inactive)
[36]
  GI50: 20.6 µM (inactive)
[37]
  GI50: 20 µM (inactive)
[38]
  GI50: 19.2 µM (inactive)
[39]
  GI50: 5.53 µM (inactive)
[40]
  GI50: 20.3 µM (inactive)
[41]
  GI50: 46.7 µM (inactive)
[42]
  GI50: 53.8 µM (inactive)
[43]
  GI50: 52.2 µM (inactive)
[44]
  GI50: 20.8 µM (inactive)
[45]
  GI50: 38.5 µM (inactive)
[46]
  GI50: 33.2 µM (inactive)
[47]
  GI50: 21.8 µM (inactive)
[48]
  GI50: 30.5 µM (inactive)
[49]
  GI50: 40.7 µM (inactive)
[50]
  GI50: 20.6 µM (inactive)
[51]
  GI50: 38.1 µM (inactive)
[52]
  GI50: 15.6 µM (inactive)
[53]
  GI50: 30 µM (inactive)
[54]
  GI50: 57.3 µM (inactive)
[55]
  GI50: 18.7 µM (inactive)
